In patent US9512425B2, “Inhibiting migration of cancer cells” (Cornell University, priority 2012, dated 2016):
“Also recorded” adds a separate entry of the source.

Tests used:
MDA-MB-231 cells = assay: Orthotopic MDA tumor / pulmonary metastasis model, bioluminescence imaging; assay type: in vivo, CB-17 SCID mice
Method: (§1) For orthotopic injection, 1×10^6 viable MDA-MB-231, MDA-Cont, or MDA-miR-708 cells were injected into CB-17 SCID mice fat pads in a volume of 0.1 ml. Tumor growth and pulmonary metastases (following resection of primary tumor) were monitored by live animal bioluminescent imaging (Xenogen IVIS system) once per week.
(§2) Mice inoculated with firefly luciferase were anaesthetized and injected retro-orbitally with 75 mg/kg of D-luciferin (30 mg/mL in PBS). Images were taken with mice in a supine position using the Xenogen IVIS system coupled to Living Image acquisition and analysis software (Xenogen). For bioluminescence (BLI) plots, photon flux was calculated for each mouse by using a rectangular region of interest encompassing the thorax of the mouse.

Akt2 = Akt2 suppression in breast cancer cells (data not shown); assay type: cell-based
Ntrk2 3'-UTR = assay: 3'-UTR dual luciferase assay; assay type: cell-based; settings: 293T cells, Renilla/Firefly ratio
Method: (§3) The 3′-UTR of a gene of interest was amplified by PCR and cloned into a pmirGLO Dual-Luciferase miRNA Target Expression Vector (Promega). To express miRNA, synthetic premiRNA precursor for miR-708 and control scrambled miRNA were purchased from Applied Biosystems (Ambion). The miRNA precursor and pmirGLO Dual-Luciferase 3′-UTR vector were co-transfected into […] cells using the siPORT NeoFX Transfection Agent following manufacturer's instructions (Ambion). Cells were harvested and lysed at 48 hr post-transfection. The interaction between miR-708 and target 3′-UTR was measured by Dual-luciferase assay system (Promega).

Gon4l 3'-UTR = assay: 3'-UTR dual luciferase assay; assay type: cell-based; settings: 293T cells, Renilla/Firefly ratio
Method: as §3

CD44 3'-UTR = assay: 3'-UTR dual luciferase assay; assay type: cell-based; settings: 293T cells, Renilla/Firefly ratio
Method: as §3

Nnat 3'-UTR = assay: 3'-UTR dual luciferase assay; assay type: cell-based, human
Method: as §3

[1] = test system: metastatic prostate cancer cells PC3; assay: Migration of PC3 cells with ectopic miR-708; assay type: cell-based, human; settings: ectopic expression of miR-708 in PC3
p-FAK (S910) = assay: Western blot and immunostaining of p-FAK; assay type: cell-based, human
Method: Cells were homogenized in 1×RIPA lysis buffer (Millipore) containing protease inhibitors (Roche Applied Science) and 1× phosphatase inhibitor (Thermo Scientific). Samples were boiled in 1× NuPAGE LDS sampling buffer (Invitrogen), and loaded onto 4-20% gradient Tris-HCl gels (BioRad). Western blotting was performed using antibodies specific for NNAT (Cat#AB27266, Abcam), EPDR1 (Cat# SC81820, Santa Cruz), SSRP1 (Cat#SC56782, Santa Cruz), HOXB3 (Cat# SC17161, Santa Cruz), HNRNPK (Cat# SC28380, Santa Cruz), CNTFR, Phospho-p44/42 MAPK (Erk1/2, Cat #4370, Cell Signaling), p44/42 MAPK (Erk1/2, Cat #4695, Cell Signaling), VINCULIN (Cat#V9131, Sigma-Aldrich), and β-ACTIN (Sigma-Aldrich).
For immunofluorescence staining, cells were fixed overnight in paraformaldehyde before incubation with primary antibodies; mouse-monoclonal VINCULIN (Cat#V9131, Sigma-Aldrich, 1:400) and rabbit-polyclonal phosphorylated FAK (pS910, Cat #44596G, Invitrogen, 1:1000). Alexa Flour 568 or Alexa Fluor 647 anti-mouse IgG, and Alexa Fluor 647 anti-rabbit IgG (Invitrogen), were used for visualization. Following incubation with secondary antibodies the tissue sections were treated with Rhodamine Phalloidin (Cat# R415, Invitrogen). […] Images were analyzed using Axiovision 4.6 software (Carl Zeiss Inc.).

MDA cells = assay: Cell proliferation assay (EdU); assay type: cell-based, human; settings: MDA cells transformed with miR-708 lentiviral expression system
Method: For cell proliferation assays, 1×10^6 MDA cells were cultured separately in suspension in non-adhesive 6-well dishes (Corning Inc) for 2 days. EdU ([…]) was administrated to culture medium for 30 min to label proliferating cells. Cells were harvested, washed once with PBS, and fixed with 4% paraformaldehyde for 15 min at room temperature. Fixed cells were permeabilized and stained for EdU incorporation and DNA contains with the Click-iT® EdU Cell Proliferation Assay kit (Invitrogen Inc) according to the standard protocol. Flow analyses of cell phases were performed using an LSRII coupled with Diva software (BD Bioscience).

MDA-LM2 (LM2) = assay: Orthotopic MDA-LM2 tumor / pulmonary metastasis model; assay type: in vivo, mice
Method: as §1, §2
Paraffin embedded sections (5 μm) were deparaffinized following standard protocols. […] Images were obtained with an Axiovert 40 CFL microscope coupled with Axioversion 4.8.2 software (Carl Zeiss). For nodule counting, lungs were perfused, isolated and OCT embedded and sectioned for immunohistochemical analysis. Cryosections (8 μm) were mounted on glass slides and stained with hematoxylin and eosin (H&E).
To measure number of CTC in blood, 100 μl of peripheral blood was collected from mice bearing orthotopic […] expressing MDA and MDA-mir-708 breast tumors. Total RNA was isolated and subjected to Taqman Q-PCR for GFP transgene. To convert quantitative-PCR data into number of CTCs, a standard curve was generated by serially diluting GFP+MDA tumor spiked into […] of normal wild type mouse blood.

Nnat = Nnat expression in MDA-MB-436 cells overexpressing miR-708; assay type: cell-based, human; settings: MDA-MB-436 cells expressing miR-708
Method: Total RNA was extracted using the RNeasy kit (Qiagen) and converted to cDNA using Superscript II reverse transcriptase (Invitrogen). QPCR primers for Nnat were purchased from SABiosciences (Cat #PPT11378, SABiosciences), and quantitative PCR performed using iQ™ SYBER Green master mix (Biorad, Hercule, Calif.). Each sample was run in triplicate to minimize pipetting error. A standard protocol of initial denaturation at 95° C. for 3 min, 40 cycles of 95° C. for 20 sec, 60° C. for 30 sec, and 72° C. for 30 sec, followed by final extension at 72° C. for 5 min and melt curve analysis was applied on a Biorad CFX96 Real Time System (BioRad) coupled with Bio-Rad-CFX Manager software. The relative abundance of each transcript was compared with the control.

Q: Which results are given for “miR-708: microRNA, mature sequence 5'-AAGGAGCUUACAAUCUAGCUGGG-3' (SEQ ID NO: 2); expressed from lentiviral vector or used as synthetic precursor”?
A: primary tumor growth (bioluminescence imaging) (MDA-MB-231 cells; MDA-miR-708 vs MDA-pZeo control, day 30): no change; lung metastases (bioluminescence) (MDA-MB-231 cells; MDA-miR-708 vs control, primary tumors resected day 30, day 37): significantly suppressed; primary tumor growth (bioluminescence) (MDA-MB-231 cells; constitutive miR-708 in MDA cells, mammary fat pad, day 60): no significant difference; lung metastases (bioluminescence) (MDA-MB-231 cells; constitutive miR-708 in MDA cells, primary tumors resected day 60, day 74): suppressed lung metastases; primary tumor growth (MDA-MB-231 cells; doxycycline-mediated induction of miR-708, day 60): not affected; metastases (MDA-MB-231 cells; doxycycline-mediated induction of miR-708, day 74): attenuated metastases; Akt2 suppression (Akt2): not suppressed; repression of 3'-UTR luciferase reporter (Ntrk2 3'-UTR): significant repression; repression of 3'-UTR luciferase reporter (Gon4l 3'-UTR): significant repression; repression of 3'-UTR luciferase reporter (CD44 3'-UTR): significant repression; repression of 3'-UTR luciferase reporter (Nnat 3'-UTR; 293T cells, Renilla/Firefly ratio): significant repression; repression of wild type UTR (Nnat-UTR) reporter (Nnat 3'-UTR; synthetic miR-708 vs scrambled miRNA, intact UTR): effectively suppressed; repression of mutant UTR (Nnat-UTR-mut) reporter (Nnat 3'-UTR; synthetic miR-708 vs scrambled miRNA, mutated binding site): refractory to suppression; migration [1]: suppressed migration; p-FAK levels following ATP-mediated Ca^2+ release (p-FAK (S910); Western blot, MDA-miR-708 vs MDA cells): increased in MDA and not in MDA-miR-708 cells; p-FAK at vinculin+ focal adhesions (p-FAK (S910); immunostaining, MDA-miR-708 cells): devoid of p-FAK; cell proliferation (MDA cells): No significant change; primary tumor growth (MDA-LM2 (LM2); LM2 cells over-expressing miR-708, day 60): remained unperturbed; lung metastases (photon flux) (MDA-LM2 (LM2); LM2 cells over-expressing miR-708, day 67): significantly lower photon flux; also recorded: pronounced reduction; number of lung metastatic nodules (MDA-LM2 (LM2); MDA-LM2-miR-708 vs controls, H&E sections): reduced numbers; number of circulating tumor cells (CTCs) (MDA-LM2 (LM2); peripheral blood of MDA-LM2-miR-708 tumor bearing mice vs controls): reduced number; primary tumor size measurements (MDA-LM2 (LM2); weight over time, FIG. 7H): unaffected; Nnat levels (Nnat): decreased levels of Nnat
